Measurements reported in US9399663B2, “Competitive inhibitor of GP120” (priority 2014, dated 2016).
pKd: −log10 of the molar value. Where “and” joins values, the source holds several entries; their conditions need not be identical. Equal values may be shown once. Entries after “also recorded” stand apart in the source; their conditions may differ. Read-outs that look alike come from different tables or passages of the source. Residues, ends and D or L forms follow the SMILES beside them.

How the values were obtained:
[1] = biological target: T1, recombinant TUBB3 (Homo sapiens, UniProt Q13509); experiment: SPR (BIACORE T200) binding to immobilized TUBB3; conditions: for SPR response (2-1) RU, Fc2: Tubulin β-3 1092 RU: 60 sec injection; for pKd: Ligand: TUBB3
T1 construct: purchased MyBioSource, San Diego, Calif
T1 sequence (Q13509 whole entry): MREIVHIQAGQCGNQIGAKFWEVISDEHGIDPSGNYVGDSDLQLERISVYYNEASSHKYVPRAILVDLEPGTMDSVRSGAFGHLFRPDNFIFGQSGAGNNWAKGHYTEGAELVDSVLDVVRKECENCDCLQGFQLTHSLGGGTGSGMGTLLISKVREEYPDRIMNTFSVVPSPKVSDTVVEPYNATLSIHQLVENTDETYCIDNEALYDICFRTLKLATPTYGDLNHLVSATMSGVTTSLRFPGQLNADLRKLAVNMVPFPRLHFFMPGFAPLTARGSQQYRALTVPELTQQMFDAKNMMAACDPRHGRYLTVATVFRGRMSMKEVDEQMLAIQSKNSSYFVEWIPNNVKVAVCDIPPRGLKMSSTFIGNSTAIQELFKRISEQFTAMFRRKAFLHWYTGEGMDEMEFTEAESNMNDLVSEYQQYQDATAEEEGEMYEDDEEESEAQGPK
Experimental: (§1) Surface plasmon resonance (SPR). BIACORE® T200™ was used to determine the kinetic parameters for the binding of recombinant TUBB3, tubulin dimer, and assembled microtubules (ligands) to the various isoforms of gp120 or related peptides (analytes). Recombinant TUBB3, tubulin dimer, and assembled MTs were covalently attached to different flow cells of a carboxymethyldextran (CM5) sensor chip by amine coupling. The chip surface was activated for 720 sec at 10 μL/min with of 1:1 mixture of 0.1 M N-Hydroxysuccinimide (NHS) and 0.5 M 1-Ethyl-3-(-3-dimethylaminopropyl)-carbodiimide hydrochloride (EDC). […] After ligand capture, the surfaces were deactivated by injecting 1 M ethanolamine for 720 sec at 10 μL/min. HBS-P (10 mM HEPES, pH7.4, 150 mM NaCl, 0.05% P-20) with 2 mM MgCl2 used as the running buffer. Flow cell 1 on each chip was left empty and used for reference surface. […] Kinetic studies were performed by injecting different concentrations of the analytes in triplicate. The chip surface was regenerated by with 10 mM glycine pH 1.5 injected for 30 sec at a flow rate of 100 μL/min. Each sample was injected for 60 sec (contact time) followed by a dissociation time of 300 sec at a flow rate of 100 μL/min. Data was analyzed with BIACORE® T200™ Evaluation Software (version 1) to determine the equilibrium dissociation constant (KD) from a 1:1 binding model. Binding studies with peptides Helix A and Helix B were done in the same way as described above. Kinetic studies were performed by injecting different concentrations (20 μM, 10 μM, 5 μM, 2.5 μM, 1.25 μM and 0.625 μM) of Helix A and Helix B. Competition experiments with Helix A and Helix B were performed by mixing 100 nM gp120 isoforms with 10 μM of each peptide and injecting over the sensorchip surface.
(§2) Recombinant TUBB3, tubulin dimer, and assembled MTs from bovine brains were immobilized on a BIACORE® CM5 chip by amine coupling. Different concentrations of gp120s (from 3.13 to 100 nM) were injected over the surface in triplicates in each experiment. The kinetics of interaction was analyzed using a BIACORE® T200™ instrument. BiaEvaluation software was used to calculate binding affinities based on 1:1 binding model.

[2] = biological target: gp120IIIB (Human immunodeficiency virus type 1 group M subtype B, UniProt P04578); conditions: dot blot, 2 μg peptide spotted, 5 μg gp120IIIB
Experimental: Dot blot analysis: CTTs or Helix-A and -B peptides (2 μg each) were spotted on a nitrocellulose membrane and allowed to dry. The membrane was then incubated in blocking buffer (5% BSA in TBST [[…] NaCl, 20 mM Tris-base, pH 7.5, 0.05% TWEEN® 20]) for 2 hours followed by incubation with a solution composed of 5 μg recombinant gp120 (for binding to CTTs) or 5 μg recombinant TUBB3 (for Helix-A and -B) in 20 mL of TBST for 2 hours. The membranes were washed and then incubated with a mouse anti-gp120 antibody (1:1000; Immunodiagnostics, Inc.) or mouse anti-TUBB3 antibody (1:5000; Covance, N.J.) in TBST for 2 hours. Membranes were washed and incubated in goat anti-mouse HP-conjugated secondary antibody (1:20,000; Jackson ImmunoResearch Laboratories, Inc., PA). Visualization of the bands was then accomplished by the addition of PIERCE® SUPERSIGNAL™ West Pico-Stable Peroxidase Solution and Luminol/Enhancer Solution (Pierce Biotechnology, Inc., Rockford, Ill.).
Several CTTs (see Table 1) synthesized by […]® were used. Peptides (2 μg each) were spotted on a nitrocellulose membrane and incubated with a solution composed of 5 μg of gp120IIIB (Immunodiagnostics) in 20 mL of TBS-TWEEN® 2 hours at RT, followed by incubation with a specific primary antibody (Immunodiagnostics, +4° C., ON). Following incubation with a corresponding HRP-conjugated secondary antibody 1 hour at RT, the immunocomplexes were visualized with chemiluminescence.

[3] = tested on: rat cortical neurons; experiment: Penetration of neuronal membranes (confocal microscopy, transmission electron microscopy); assay type: cell-based; conditions: 5 μM, 24 hours, FITC-labeled; listed as Helix-A peptide
Experimental: FTIR spectra of Helix-A nano. The gray line highlights the Amide region typical of peptide components. c. […] Representative images obtained by transmission electron microscopy showing unmodified MSN and Helix-A nano in intact and open lysosomes, respectively. Bar=500 nm.
Primary cortical neurons: Cortical neuronal cultures were prepared from the cortex of embryonic (E17-18) Sprague Dawley rats (Charles River, Mass.). Cells were seeded onto poly-L-lysine pre-coated plates in Neurobasal Medium containing 2% B27 supplement, […] glutamate, 0.5 mM L-glutamine, and 1% antibiotic-antimycotic solution (INVITROGEN®, Carlsbad, Calif.). Cultures were grown at 37° C. in 5% CO2/95% air for 7 days. Cultures contained ˜5% of non-neuronal cells. […]
Immunocytochemistry of primary neurons: Primary cortical neurons were maintained on glass coverslips for 7 days and fixed in 4% paraformaldehyde/phosphate buffer with 4% sucrose for 20 minutes at room temperature (RT). […] Coverslips were washed with PBS-T and correspondent fluorescence-conjugated secondary antibody (1:2000; INVITROGEN®, CA) were applied for 1 hour at RT. […] Image scale was calibrated and length of MAP-2 positive processes was measured in 10 neurons per field using ImageJ.

[4] = biological target: T2, gp120 binding to Tubulin β-3 (Homo sapiens, UniProt Q13509); experiment: SPR competition: gp120 premixed with Helix peptide injected over TUBB3; conditions: 60 sec injection
T2 construct: purchased MyBioSource (TUBB3); Immunodiagnostics Inc, Woburn, Mass; (gp120s)
T2 sequence (Q13509 whole entry): as above
Source text: (§3) BIACORE® T200™ was used to determine the kinetic parameters for the binding of recombinant TUBB3, tubulin dimer, and assembled MTs to gp120s in the absence and presence of Helix-A peptide. […] Representative data are from one of three independent experiments.
(§4) Surface plasmon resonance (SPR). BIACORE® T200™ was used to determine the kinetic parameters for the binding of recombinant TUBB3, tubulin dimer, and assembled microtubules (ligands) to the various isoforms of gp120 or related peptides (analytes). Recombinant TUBB3, tubulin dimer, and assembled MTs were covalently attached to different flow cells of a carboxymethyldextran (CM5) sensor chip by amine coupling. The chip surface was activated for 720 sec at 10 μL/min with of 1:1 mixture of 0.1 M N-Hydroxysuccinimide (NHS) and 0.5 M 1-Ethyl-3-(-3-dimethylaminopropyl)-carbodiimide hydrochloride (EDC). […] After ligand capture, the surfaces were deactivated by injecting 1 M ethanolamine for 720 sec at 10 μL/min. HBS-P (10 mM HEPES, pH7.4, 150 mM NaCl, 0.05% P-20) with 2 mM MgCl2 used as the running buffer. Flow cell 1 on each chip was left empty and used for reference surface. TUBB3 (1040 RU), tubulin dimer (2086 RU), and assembled MTs (990 RU) were captured on the remaining 3 flow cells. […] Data was analyzed with BIACORE® T200™ Evaluation Software (version 1) to determine the equilibrium dissociation constant (KD) from a 1:1 binding model. […]

[5] = tested on: gp120 binding to microtubules; experiment: SPR competition: gp120 premixed with Helix peptide injected over microtubules; design: species or system Porcine; conditions: 60 sec injection
Source text: as §3, §4

[6] = tested on: gp120 binding to tubulin dimer; experiment: SPR competition: gp120 premixed with Helix peptide injected over tubulin dimer; design: species or system Porcine; conditions: 60 sec injection
Experimental: BIACORE® T200™ was used to determine the kinetic parameters for the binding of recombinant TUBB3, tubulin dimer, and assembled MTs to gp120s in the absence and presence of Helix-A peptide. Gp120s (100 nM) were injected over the surface alone or as a premix with Helix-A peptides (10 μM). Representative data are from one of three independent experiments.
as §4, with “surface.” for “surface. TUBB3 (1040 RU), tubulin dimer (2086 RU), and assembled MTs (990 RU) were captured on the remaining 3 flow cells.”

[7] = tested on: tubulin dimer; experiment: SPR (BIACORE T200) binding to immobilized tubulin dimer; design: species or system Porcine; conditions: 1 uM peptide alone; 60 sec injection
Experimental: as §1
as §2, with “BiaEvaluation software was used to calculate binding affinities based on 1:1 binding model.” left out

[8] = tested on: assembled MTs; experiment: SPR (BIACORE T200) binding to immobilized assembled microtubules; design: species or system Porcine; conditions: 1 uM peptide alone; 60 sec injection
Experimental: Surface plasmon resonance (SPR). BIACORE® T200™ was used to determine the kinetic parameters for the binding of recombinant TUBB3, tubulin dimer, and assembled microtubules (ligands) to the various isoforms of gp120 or related peptides (analytes). Recombinant TUBB3, tubulin dimer, and assembled MTs were covalently attached to different flow cells of a carboxymethyldextran (CM5) sensor chip by amine coupling. The chip surface was activated for 720 sec at 10 μL/min with of 1:1 mixture of 0.1 M N-Hydroxysuccinimide (NHS) and 0.5 M 1-Ethyl-3-(-3-dimethylaminopropyl)-carbodiimide hydrochloride (EDC). […] After ligand capture, the surfaces were deactivated by injecting 1 M ethanolamine for 720 sec at 10 μL/min. HBS-P (10 mM HEPES, pH7.4, 150 mM NaCl, 0.05% P-20) with 2 mM MgCl2 used as the running buffer. Flow cell 1 on each chip was left empty and used for reference surface. TUBB3 (1040 RU), tubulin dimer (2086 RU), and assembled MTs (990 RU) were captured on the remaining 3 flow cells. Kinetic studies were performed by injecting different concentrations of the analytes in triplicate. The chip surface was regenerated by with 10 mM glycine pH 1.5 injected for 30 sec at a flow rate of 100 μL/min. Each sample was injected for 60 sec (contact time) followed by a dissociation time of 300 sec at a flow rate of 100 μL/min. Data was analyzed with BIACORE® T200™ Evaluation Software (version 1) to determine the equilibrium dissociation constant (KD) from a 1:1 binding model. Binding studies with peptides Helix A and Helix B were done in the same way as described above. Kinetic studies were performed by injecting different concentrations (20 μM, 10 μM, 5 μM, 2.5 μM, 1.25 μM and 0.625 μM) of Helix A and Helix B. Competition experiments with Helix A and Helix B were performed by mixing 100 nM gp120 isoforms with 10 μM of each peptide and injecting over the sensorchip surface.
Recombinant TUBB3, tubulin dimer, and assembled MTs from bovine brains were immobilized on a BIACORE® CM5 chip by amine coupling. […] The kinetics of interaction was analyzed using a BIACORE® T200™ instrument. […]

[9] = 100 nM GP120IIIB + 1 uM peptide
[10] = 100 nM GP120IIIB + 10 uM peptide

Question: What does the source list for “gp120MN: HIV envelope protein gp120, strain MN, purchased from Immunodiagnostics”?
Answer: SPR response (2-1) RU, Fc2: Tubulin β-3 1092 RU ([1]; 100 nM gp120 alone): 9 RU and 8.8 RU; pKd ([1]; mean of two independent experiments, read-out: Mean KD): 6.13; pKd ([1]; single experiment, gp120 3.13 to 100 nM, 1:1 binding model, read-out: KD): 6.24 and 6.05

Question: EGEGEEEGE [SEQ ID NO: 5] was tested. Which “Binding to gp120” value [2] did it give?
Answer: YES

Question: And the “Binding to gp120” value ([2]; listed as tubulin-α1A/1B Δ2)?
Answer: potential binding partners

Question: For EDDEEESEA [SEQ ID NO: 13], which “Binding to gp120” value ([2]; listed as tubulin β-3 (TUBB3)) is on record?
Answer: potential binding partners

Question: For CC[C@H](C)[C@H](NC(=O)[C@H](CC(=O)O)NC(=O)[C@H](CCC(=O)O)NC(=O)[C@H](Cc1c[nH]cn1)NC(=O)[C@H](CCSC)NC(=O)[C@H](CCC(N)=O)NC(=O)[C@H](CCC(=O)O)NC(=O)[C@@H](NC(=O)[C@H](CCSC)NC(=O)[C@H](CC(=O)O)NC(=O)[C@@H](N)CC(N)=O)C(C)C)C(=O)N[C@H](C(=O)N[C@@H](CO)C(=O)N[C@@H](CC(C)C)C(=O)N[C@@H](Cc1c[nH]c2ccccc12)C(=O)N[C@@H](CC(=O)O)C(=O)N[C@@H](CCC(N)=O)C(=O)N[C@@H](CO)C(=O)N[C@@H](CC(C)C)C(=O)N[C@@H](CCCCN)C(=O)O)[C@@H](C)CC [Helix A] (H-NDMVEQMHEDIISLWDQSLK-OH; N-terminus and C-terminus assumed), which “penetration of neuronal cell membrane” value [3] is on record?
Answer: could not penetrate; also recorded: not cell-membrane-penetrable

Question: “RAKWNNTLKQIASK (listed as Homo sapiens) [Helix B]” was tested. Which “SPR response (2-1) RU, Fc2: Tubulin β-3 1092 RU” value (from here on “SPR response (2-1) RU, Fc2”) [4, 9] did it give?
Answer: 33 RU

Question: And the “SPR response (2-1) RU, Fc2” value [4, 10]?
Answer: 34 RU and 32 RU

Question: What about the “SPR response (4-1) RU, Fc4: Microtubules 970 RU” value (“SPR response (4-1) RU, Fc4” for short) [5, 9] of the same compound?
Answer: 16.5 RU

Question: And the “SPR response (4-1) RU, Fc4” value [5, 10]?
Answer: 19 RU and 20 RU

Question: What about the “SPR response (3-1) RU, Fc3: Tubulin Dimer 1900 RU” value (“SPR response (3-1) RU, Fc3” for short) [6, 9] of the same compound?
Answer: 18.5 RU

Question: What about the “SPR response (3-1) RU, Fc3” value [6, 10] of the same compound?
Answer: 20 RU and 18 RU

Question: What about the “SPR response (2-1) RU, Fc2” value ([1]; 10 uM peptide alone) of the same compound?
Answer: 1.1 RU and 1.2 RU

Question: And the “SPR response (3-1) RU, Fc3” value [7]?
Answer: 0.4 RU and 0.5 RU

Question: What about the “SPR response (4-1) RU, Fc4” value [8] of the same compound?
Answer: N/B
